Laboratory results reported in patent US12371428B2 (Exelixis, Inc., priority 2019, dated 2025).

Assays:
[1] = target: KDR (phospho-KDR, VEGF165-stimulated HUVEC cells) (Homo sapiens (Human), UniProt P35968); test: KDR autophosphorylation ELISA in HUVEC cells (Example G); assay type: cell-based; settings: cellular activity; KDR autophosphorylation ELISA in HUVEC cells
Method in brief: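 Read-out is phospho-KDR measured by ELISA in lysates of VEGF165-stimulated (100 ng/mL, 5 min) HUVEC that were serum-starved 24 h and then pre-exposed 1 h to compound across 8 doses in 0.3% DMSO. Unstimulated lysates defined 0% and stimulated vehicle lysates 100% activity; IC50 values come from 4-parameter logistic regression.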

[2] = target: Human MET (residues 956-1390) (Homo sapiens (Human), UniProt P08581); test: Human Met kinase assay, HTRF KinEase (Example D-2); assay type: biochemical; settings: protocol of Example D-2 (other compounds); read-out: c-Met IC50
Sequence of Human MET (residues 956-1390) (P08581 956-1390): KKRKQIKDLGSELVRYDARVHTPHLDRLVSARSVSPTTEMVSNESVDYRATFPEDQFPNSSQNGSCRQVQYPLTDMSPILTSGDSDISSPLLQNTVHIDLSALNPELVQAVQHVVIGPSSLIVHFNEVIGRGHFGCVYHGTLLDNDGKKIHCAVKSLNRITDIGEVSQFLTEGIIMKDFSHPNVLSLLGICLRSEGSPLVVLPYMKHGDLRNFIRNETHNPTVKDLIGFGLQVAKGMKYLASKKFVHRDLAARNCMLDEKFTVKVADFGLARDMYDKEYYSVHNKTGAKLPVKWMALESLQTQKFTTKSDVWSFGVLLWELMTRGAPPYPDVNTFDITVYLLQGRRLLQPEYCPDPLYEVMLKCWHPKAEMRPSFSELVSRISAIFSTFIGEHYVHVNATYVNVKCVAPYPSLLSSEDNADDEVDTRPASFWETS
Method in brief: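 IC50 values come from a 4-parameter logistic fit of the […] fluorescence ratio, set between DMSO (100%) and reference compound at 1 μM (0%). Reactions held MET 956-1390 at 0.1 ng/well, ATP at Km, biotinylated peptide, 5 mM MgCl2, 1 mM MnCl2, 1 mM DTT and 3% DMSO, and ran 40 min at room temperature before streptavidin-XL665/Eu-antibody detection.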

[3] = target: Met (phospho-Met, HGF-stimulated PC-3 prostate cancer cells) (Homo sapiens (Human), UniProt P08581); test: Met autophosphorylation ELISA in PC-3 cells (Example F); assay type: cell-based; settings: cellular activity; Met autophosphorylation ELISA in PC-3 cells; read-out: c-Met IC50
Sequence of Met (phospho-Met, HGF-stimulated PC-3 prostate cancer cells) (P08581 25-1390): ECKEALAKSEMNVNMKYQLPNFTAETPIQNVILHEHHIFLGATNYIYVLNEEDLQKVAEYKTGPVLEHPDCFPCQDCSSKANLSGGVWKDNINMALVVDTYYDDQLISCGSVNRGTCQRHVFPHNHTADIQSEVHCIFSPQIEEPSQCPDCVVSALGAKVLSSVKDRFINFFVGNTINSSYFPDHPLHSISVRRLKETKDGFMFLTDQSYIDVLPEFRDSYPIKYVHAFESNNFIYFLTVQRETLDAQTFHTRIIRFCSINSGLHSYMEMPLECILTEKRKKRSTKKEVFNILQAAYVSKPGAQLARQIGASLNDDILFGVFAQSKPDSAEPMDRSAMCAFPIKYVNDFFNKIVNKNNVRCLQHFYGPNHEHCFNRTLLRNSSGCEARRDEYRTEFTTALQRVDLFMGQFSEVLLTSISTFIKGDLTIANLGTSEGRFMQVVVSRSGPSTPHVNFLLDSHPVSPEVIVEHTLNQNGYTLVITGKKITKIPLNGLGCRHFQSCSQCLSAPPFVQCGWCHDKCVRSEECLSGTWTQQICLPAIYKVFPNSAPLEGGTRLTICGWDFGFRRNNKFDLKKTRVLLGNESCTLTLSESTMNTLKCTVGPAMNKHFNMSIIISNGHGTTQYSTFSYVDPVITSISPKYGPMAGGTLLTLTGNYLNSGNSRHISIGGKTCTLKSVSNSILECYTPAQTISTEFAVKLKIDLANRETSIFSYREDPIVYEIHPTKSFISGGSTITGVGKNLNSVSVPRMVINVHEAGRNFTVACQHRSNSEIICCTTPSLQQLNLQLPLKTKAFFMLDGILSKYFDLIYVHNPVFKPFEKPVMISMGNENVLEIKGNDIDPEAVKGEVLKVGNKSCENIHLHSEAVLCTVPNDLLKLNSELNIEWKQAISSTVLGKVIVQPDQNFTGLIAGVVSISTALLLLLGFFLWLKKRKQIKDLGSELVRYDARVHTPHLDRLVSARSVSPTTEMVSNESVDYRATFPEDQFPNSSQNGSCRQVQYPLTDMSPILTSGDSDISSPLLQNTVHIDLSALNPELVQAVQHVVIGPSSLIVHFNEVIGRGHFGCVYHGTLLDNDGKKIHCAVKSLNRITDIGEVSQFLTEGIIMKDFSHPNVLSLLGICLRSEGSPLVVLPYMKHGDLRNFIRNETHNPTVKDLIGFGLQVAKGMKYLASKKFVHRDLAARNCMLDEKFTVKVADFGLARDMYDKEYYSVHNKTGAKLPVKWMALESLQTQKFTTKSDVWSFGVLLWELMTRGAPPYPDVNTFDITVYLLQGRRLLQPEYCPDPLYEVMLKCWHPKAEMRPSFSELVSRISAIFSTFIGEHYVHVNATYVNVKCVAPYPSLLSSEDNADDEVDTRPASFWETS
Method in brief: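 Serum-starved (3 h) PC-3 cells were treated 1 h with compounds (8-point curve, 0.3% DMSO), then stimulated with 100 ng/mL human HGF for 10 min. Lysate phospho-Met (panTyr) was measured by sandwich ELISA, normalised to DMSO and reference-inhibitor controls. IC50 came from 4-parameter logistic fit.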

Sequence of KDR (phospho-KDR, VEGF165-stimulated HUVEC cells) (P35968 20-1356): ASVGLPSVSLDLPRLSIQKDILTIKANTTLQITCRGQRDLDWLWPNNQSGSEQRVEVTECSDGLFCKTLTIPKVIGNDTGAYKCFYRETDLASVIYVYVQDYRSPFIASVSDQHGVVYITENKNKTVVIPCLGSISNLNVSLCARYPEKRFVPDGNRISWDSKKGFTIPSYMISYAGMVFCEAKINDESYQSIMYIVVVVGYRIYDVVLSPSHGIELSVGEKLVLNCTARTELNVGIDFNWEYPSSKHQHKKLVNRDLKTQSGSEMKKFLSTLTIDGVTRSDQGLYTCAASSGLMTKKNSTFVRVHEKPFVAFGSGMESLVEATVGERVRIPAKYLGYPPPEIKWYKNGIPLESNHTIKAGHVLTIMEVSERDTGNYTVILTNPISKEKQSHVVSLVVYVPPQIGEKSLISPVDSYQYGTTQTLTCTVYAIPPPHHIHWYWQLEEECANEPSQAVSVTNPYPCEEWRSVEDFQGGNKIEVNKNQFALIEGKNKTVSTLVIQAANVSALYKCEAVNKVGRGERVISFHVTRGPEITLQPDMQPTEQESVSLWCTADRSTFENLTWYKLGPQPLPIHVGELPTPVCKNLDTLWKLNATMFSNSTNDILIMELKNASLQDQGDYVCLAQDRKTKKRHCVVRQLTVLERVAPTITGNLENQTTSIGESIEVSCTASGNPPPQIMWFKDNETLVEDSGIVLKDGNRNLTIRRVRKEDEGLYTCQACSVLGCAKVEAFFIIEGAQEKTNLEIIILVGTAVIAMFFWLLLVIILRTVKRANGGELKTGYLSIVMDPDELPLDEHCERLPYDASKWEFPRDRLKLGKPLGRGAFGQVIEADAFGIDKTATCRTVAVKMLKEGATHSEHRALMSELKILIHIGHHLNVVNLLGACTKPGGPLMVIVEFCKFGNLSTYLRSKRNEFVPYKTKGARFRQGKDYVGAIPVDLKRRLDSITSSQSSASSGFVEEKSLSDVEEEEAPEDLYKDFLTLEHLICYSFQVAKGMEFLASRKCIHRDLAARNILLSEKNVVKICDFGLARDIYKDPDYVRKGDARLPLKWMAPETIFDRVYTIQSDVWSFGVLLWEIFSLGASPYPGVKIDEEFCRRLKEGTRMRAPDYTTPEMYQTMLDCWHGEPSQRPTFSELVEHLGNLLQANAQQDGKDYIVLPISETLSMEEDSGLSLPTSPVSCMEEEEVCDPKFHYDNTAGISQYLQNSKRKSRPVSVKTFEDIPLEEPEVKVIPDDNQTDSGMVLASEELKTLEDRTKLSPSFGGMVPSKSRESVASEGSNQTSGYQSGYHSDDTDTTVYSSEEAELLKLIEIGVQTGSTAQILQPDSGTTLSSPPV

| IC50 [1] | IC50 [2] | IC50 [3] | SMILES |
| --- | --- | --- | --- |
| > 300 nM | < 100 nM | < 100 nM | COc1cnc2c(Oc3ccc(NC(=O)c4cn(C)c(Cl)c(-c5ccc(F)cc5)c4=O)cc3F)ccnc2c1 [Compound 411, 6-chloro-N-[3-fluoro-4-[(7-methoxy-1,5-naphthyridin-4-yl)oxy]phenyl]-5-(4-fluorophenyl)-1-methyl-4-oxopyridine-3-carboxamide] |
| < 100 nM | < 100 nM | < 100 nM | COc1cnc2c(Oc3ccc(NC(=O)c4ccc(C)n(-c5ccc(F)cc5)c4=O)cc3F)ccnc2c1 [Compound 83, N-[3-Fluoro-4-[(7-methoxy-1,5-naphthyridin-4-yl)oxy]phenyl]-1-(4-fluorophenyl)-6-methyl-2-oxopyridine-3-carboxamide] |
| 100 to 300 nM | < 100 nM | < 100 nM | COc1cnc2c(Oc3ccc(NC(=O)c4cnc(C)c(-c5c(C)cc(F)cc5C)c4O)cc3F)ccnc2c1 [Compound 417, 5-(4-fluoro-2,6-dimethylphenyl)-N-[3-fluoro-4-[(7-methoxy-1,5-naphthyridin-4-yl)oxy]phenyl]-4-hydroxy-6-methylpyridine-3-carboxamide] |
| > 300 nM | 100 to 300 nM | < 100 nM | COc1cc2nccc(Oc3ccc(NC(=O)c4cn(C5CC5)c(C)c(-c5ccc(F)cc5C)c4=O)cc3F)c2nc1OC [Compound 439, 1-cyclopropyl-N-[4-[(6,7-dimethoxy-1,5-naphthyridin-4-yl)oxy]-3-fluorophenyl]-5-(4-fluoro-2-methylphenyl)-6-methyl-4-oxopyridine-3-carboxamide] |
| < 100 nM | < 100 nM | < 100 nM | CCn1cc(C(=O)Nc2ccc(Oc3ccnc4cc(OC)c(OC)nc34)c(F)c2)c(=O)c(-c2ccc(F)cc2)c1C [Compound 63, N-[4-[(6,7-Dimethoxy-1,5-naphthyridin-4-yl)oxy]-3-fluorophenyl]-1-ethyl-5-(4-fluorophenyl)-6-methyl-4-oxopyridine-3-carboxamide] |
| < 100 nM | < 100 nM | < 100 nM | Cc1cc2nccc(Oc3ccc(NC(=O)c4cnc(C)c(-c5ccc(F)cc5)c4O)cc3F)c2nc1OCCCN1CCOCC1 [Compound 438, N-[3-fluoro-4-[[7-methyl-6-(3-morpholin-4-ylpropoxy)-1,5-naphthyridin-4-yl]oxy]phenyl]-5-(4-fluorophenyl)-4-hydroxy-6-methylpyridine-3-carboxamide] |
| < 100 nM | 100 to 300 nM | < 100 nM | Cc1cc(F)ccc1-c1c(C)ncc(C(=O)Nc2ccc(Oc3ccnc4cc(C)c(F)nc34)c(F)c2)c1O [Compound 427, N-[3-fluoro-4-[(6-fluoro-7-methyl-1,5-naphthyridin-4-yl)oxy]phenyl]-5-(4-fluoro-2-methylphenyl)-4-hydroxy-6-methylpyridine-3-carboxamide] |
| < 100 nM | < 100 nM | < 100 nM | COc1cnc2c(Oc3ccc(NC(=O)c4c(C)nc(C)c(-c5ccc(F)cc5)c4O)cc3F)ccnc2c1 [Compound 66, N-[3-Fluoro-4-[(7-methoxy-1,5-naphthyridin-4-yl)oxy]phenyl]-5-(4-fluorophenyl)-4-hydroxy-2,6-dimethylpyridine-3-carboxamide] |
| < 100 nM | 100 to 300 nM | < 100 nM | C=Cc1cc2nccc(Oc3ccc(NC(=O)c4cnc(C)c(-c5ccc(F)cc5C)c4O)cc3F)c2nc1OC [Compound 423, N-[4-[(7-ethenyl-6-methoxy-1,5-naphthyridin-4-yl)oxy]-3-fluorophenyl]-5-(4-fluoro-2-methylphenyl)-4-hydroxy-6-methylpyridine-3-carboxamide] |
| < 100 nM | < 100 nM | < 100 nM | COc1cc2nccc(Oc3ccc(NC(=O)c4cn(C)c(C)c(-c5ccc(F)cc5)c4=O)cc3F)c2nc1OC [Compound 58, N-[4-[(6,7-Dimethoxy-1,5-naphthyridin-4-yl)oxy]-3-fluorophenyl]-5-(4-fluorophenyl)-1,6-dimethyl-4-oxopyridine-3-carboxamide] |
| < 100 nM | < 100 nM | < 100 nM | COc1nc2c(Oc3ccc(NC(=O)c4c(C)nc(C)c(-c5ccc(F)cc5)c4O)cc3F)ccnc2cc1O [Compound 431, N-[3-fluoro-4-[(7-hydroxy-6-methoxy-1,5-naphthyridin-4-yl)oxy]phenyl]-5-(4-fluorophenyl)-4-hydroxy-2,6-dimethylpyridine-3-carboxamide] |

Second part, the compound before the results:

| SMILES | IC50 [1] | IC50 [2] | IC50 [3] |
| --- | --- | --- | --- |
| COc1cc2nccc(Oc3ccc(NC(=O)c4cn(-c5ccn(C)n5)cc(-c5ccc(F)cc5)c4=O)cc3F)c2nc1OC [Compound 53, N-[4-[(6,7-Dimethoxy-1,5-naphthyridin-4-yl)oxy]-3-fluorophenyl]-5-(4-fluorophenyl)-1-(1-methylpyrazol-3-yl)-4-oxopyridine-3-carboxamide] | > 300 nM | < 100 nM | < 100 nM |
| CCc1cnc2c(Oc3ccc(NC(=O)c4cnc(C)c(-c5ccc(F)cc5)c4O)cc3F)ccnc2c1 [Compound 418, N-[4-[(7-ethyl-1,5-naphthyridin-4-yl)oxy]-3-fluorophenyl]-5-(4-fluorophenyl)-4-hydroxy-6-methylpyridine-3-carboxamide] | < 100 nM | < 100 nM | < 100 nM |
| COc1cc2nccc(Oc3ccc(NC(=O)c4c(C)n(C)cc(-c5ccc(F)cc5)c4=O)cc3F)c2nc1OC [Compound 81, N-[4-[(6,7-Dimethoxy-1,5-naphthyridin-4-yl)oxy]-3-fluorophenyl]-5-(4-fluorophenyl)-1,2-dimethyl-4-oxopyridine-3-carboxamide] | < 100 nM | < 100 nM | < 100 nM |
| CCn1cc(C(=O)Nc2ccc(Oc3ccnc4cc(O)cnc34)c(F)c2)c(=O)c(-c2ccc(F)cc2)c1C [Compound 410, 1-ethyl-N-[3-fluoro-4-[(7-hydroxy-1,5-naphthyridin-4-yl)oxy]phenyl]-5-(4-fluorophenyl)-6-methyl-4-oxopyridine-3-carboxamide] | > 300 nM | < 100 nM | 100 to 300 nM |
| COc1cc2nccc(Oc3ccc(NC(=O)c4c(C)nc(O)c(-c5ccc(F)cc5)c4O)cc3F)c2nc1OC [Compound 443, N-[4-[(6,7-dimethoxy-1,5-naphthyridin-4-yl)oxy]-3-fluorophenyl]-5-(4-fluorophenyl)-4,6-dihydroxy-2-methylpyridine-3-carboxamide] | > 300 nM | < 100 nM | 100 to 300 nM |
| COc1cc2nccc(Oc3ccc(NC(=O)c4ncnc(-c5ccc(F)cc5)c4O)cc3F)c2nc1OC [Compound 96, N-[4-[(6,7-Dimethoxy-1,5-naphthyridin-4-yl)oxy]-3-fluorophenyl]-6-(4-fluorophenyl)-5-hydroxypyrimidine-4-carboxamide] | < 100 nM | < 100 nM | < 100 nM |
| COc1cc2nccc(Oc3ccc(NC(=O)c4cnc(C)c(-c5ccc(F)cc5)c4O)cc3)c2nc1OC(C)C [Compound 413, 5-(4-fluorophenyl)-4-hydroxy-N-[4-[(7-methoxy-6-propan-2-yloxy-1,5-naphthyridin-4-yl)oxy]phenyl]-6-methylpyridine-3-carboxamide] | < 100 nM | < 100 nM | < 100 nM |
| COc1cc2nccc(Oc3ccc(NC(=O)c4c5n(cc(-c6ccc(F)cc6)c4=O)CCC5)cc3)c2nc1OC [Compound 407, N-[4-[(6,7-dimethoxy-1,5-naphthyridin-4-yl)oxy]phenyl]-6-(4-fluorophenyl)-7-oxo-2,3-dihydro-1H-indolizine-8-carboxamide] | > 300 nM | < 100 nM | < 100 nM |
| COc1cnc2c(Oc3ccc(NC(=O)c4ncc(C)n(-c5ccc(F)cc5)c4=O)cc3F)ccnc2c1 [Compound 94, N-[3-Fluoro-4-[(7-methoxy-1,5-naphthyridin-4-yl)oxy]phenyl]-4-(4-fluorophenyl)-5-methyl-3-oxopyrazine-2-carboxamide] | > 300 nM | < 100 nM | < 100 nM |
| COc1ccc2nccc(Oc3ccc(NC(=O)c4ccc(C)n(-c5ccc(F)cc5)c4=O)cc3F)c2n1 [Compound 84, N-[3-Fluoro-4-[(6-methoxy-1,5-naphthyridin-4-yl)oxy]phenyl]-1-(4-fluorophenyl)-6-methyl-2-oxopyridine-3-carboxamide] | < 100 nM | < 100 nM | < 100 nM |
| COc1cc2nccc(Oc3ccc(NC(=O)c4cn(C)c(C)c(-c5ccc(F)cc5)c4=O)cc3)c2nc1OC [Compound 65, N-[4-[(6,7-Dimethoxy-1,5-naphthyridin-4-yl)oxy]phenyl]-5-(4-fluorophenyl)-1,6-dimethyl-4-oxopyridine-3-carboxamide] | < 100 nM | < 100 nM | < 100 nM |
| COc1cc2nccc(Oc3ccc(NC(=O)c4cn(C)c(C)c(-c5ccc(F)cc5C)c4=O)cc3F)c2nc1OC [Compound 75, N-[4-[(6,7-Dimethoxy-1,5-naphthyridin-4-yl)oxy]-3-fluorophenyl]-5-(4-fluoro-2-methylphenyl)-1,6-dimethyl-4-oxopyridine-3-carboxamide] | < 100 nM | < 100 nM | < 100 nM |
